Active and inactive are the calls of the source. The rule behind the calls is not given here.
What was measured:
RAW264.7 [1] = experiment: Induction of apoptosis in mouse RAW264.7 cells assessed as necrotic cells at 8 uM by flow cytometry analysis (reference value: 20.6 %); assay type: functional
B16-OVA melanoma cell [2] = experiment: Antitumor activity against mouse B16-OVA melanoma cell xenografted in C57BL/6 mouse assessed as increase in number of memory T cells in spleen at 500 ug, sc in presence of OVAp by flow cytometry analysis; assay type: functional, organism-based; settings: dose 500.0 µg
B16-OVA melanoma cell [3] = experiment: Antitumor activity against mouse B16-OVA melanoma cell xenografted in C57BL/6 mouse assessed as at 500 ug administered 5 times for every 2 days from day 9 to 17; assay type: functional, cell-based; settings: dose 500.0 µg, time 9.0 day
[4] = Toxicity in C57BL/6 mouse assessed as effect on ALT level in serum at 500 ug measured after 1 day after immunization; settings: 24 h, dose 500 µg
RAW264.7 [5] = experiment: Induction of apoptosis in mouse RAW264.7 cells assessed as necrotic cells at 4 uM by flow cytometry analysis (reference value: 20.6 %); assay type: functional
RAW264.7 [6] = experiment: Induction of apoptosis in mouse RAW264.7 cells assessed as apoptotic cells at 10 uM by flow cytometry analysis (reference value: 3.26 %); assay type: functional
[7] = Toxicity in C57BL/6 mouse assessed as effect on urea level in serum at 500 ug measured after 1 day after immunization; settings: 24 h, dose 500 µg
[8] = Toxicity in BALB/c mouse assessed as increase in Timp1 expression at 100 to 1000 ug measured after 16 hrs in presence of hemagglutinin; settings: in vivo, dose 100-1000 µg
Mus musculus [9] = species: Mus musculus; experiment: Induction of immune response in C57BL/6 mouse assessed as increase in total CD8+T cells percentage in spleen at 100 ug measured after 35 days by flow cytometry analysis; assay type: functional, organism-based; settings: dose 100.0 µg, time 35.0 day
RAW264.7 [10] = experiment: Upregulation of CD86 expression in mouse RAW264.7 cells measured after 24 hrs by flow cytometry analysis; assay type: functional, cell-based; settings: dose 10-50 µM
[11] = Toxicity in C57BL/6 mouse assessed as effect on liver at 500 ug, sc by H and E staining based analysis; assay type: organism-based; settings: in vivo, dose 500 µg
RAW264.7 [12] = experiment: Induction of apoptosis in mouse RAW264.7 cells assessed as live cells at 4 uM by flow cytometry analysis (reference value: 75.4 %); assay type: functional
BMDC [13] = experiment: Upregulation of CD86 expression in mouse BMDC cells at 5 to 50 uM measured after 24 hrs in presence of OVAp by flow cytometry analysis; assay type: functional, cell-based; settings: dose 5-50 µM
RAW264.7 [14] = experiment: Induction of apoptosis in mouse RAW264.7 cells assessed as necrotic cells at 16 uM by flow cytometry analysis (reference value: 20.6 %); assay type: functional
BMDC [15] = experiment: Induction of IL-6 production in mouse BMDC cells at 100 uM; assay type: functional, cell-based
[16] = Toxicity in BALB/c mouse assessed as effect on body weight loss at 1000 ug measured after 16 hrs in presence of hemagglutinin; settings: in vivo, dose 1000 µg
RAW264.7 [17] = experiment: Induction of apoptosis in mouse RAW264.7 cells assessed as live cells at 8 uM by flow cytometry analysis (reference value: 75.4 %); assay type: functional
[18] = Antitumor activity against mouse B16-OVA melanoma cell xenografted in C57BL/6 mouse assessed as fold increase in CD8+T cells at 500 ug, sc in presence of OVAp by flow cytometry analysis; assay type: functional; settings: dose 500 µg
Mus musculus [19] = experiment: Immuno-adjuvant activity in SV-immunized C57BL/6 mouse assessed as increase in HA-specific IgG1 titer level at 100 ug, sc administered immediately and on day 0, 14 and measured at day 21 by ELISA; assay type: functional, organism-based; settings: dose 100.0 µg, time 21.0 day
BMDC [20] = experiment: Induction of immune response in TLR7 knockout mouse BMDC cells assessed as increase in CXCL10 production at 10 to 100 uM incubated for 24 hrs by ELISA method; assay type: functional, cell-based; settings: dose 10-100 µM
[21] = Toxicity in C57BL/6 mouse assessed as effect on kidney at 500 ug, sc by H and E staining based analysis; assay type: organism-based; settings: in vivo, dose 500 µg
[22] = Upregulation of CD86 expression in mouse BMDC cells assessed as fold increase at 5 to 50 uM measured after 24 hrs in presence of OVAp by flow cytometry analysis; assay type: functional; settings: dose 5-50 µM
BMDC [23] = experiment: Cytotoxicity against mouse BMDC cells at 80 uM incubated for 24 hrs by Celltiter-Glo luminescence assay; assay type: toxicity, cell-based
[24] = Upregulation of CD86 expression in mouse RAW264.7 cells assessed as fold increase in fluorescence intensity at 20 uM measured after 24 hrs by flow cytometry analysis; assay type: functional
[25] = Toxicity in BALB/c mouse assessed as reduction in leukocyte count measured after 16 hrs; settings: dose 100-1000 µg
[26] = Toxicity in C57BL/6 mouse assessed as effect on heart at 500 ug, sc by H and E staining based analysis; assay type: organism-based; settings: in vivo, dose 500 µg
BMDC [27] = experiment: Induction of immune response in TLR7 knockout mouse BMDC cells assessed as increase in MIP-1alpha production at 10 to 100 uM incubated for 24 hrs by ELISA method; assay type: functional, cell-based; settings: dose 10-100 µM
[28] = Toxicity in C57BL/6 mouse assessed as effect on creatinine level in serum at 500 ug measured after 1 day after immunization; settings: 24 h, dose 500 µg
RAW264.7 [29] = experiment: Induction of apoptosis in mouse RAW264.7 cells assessed as live cells at 12 uM by flow cytometry analysis (reference value: 75.4 %); assay type: functional
[30] = Toxicity in C57BL/6 mouse assessed as effect on glucose level in serum at 500 ug measured after 1 day after immunization; settings: 24 h, dose 500 µg
[31] = Toxicity in C57BL/6 mouse assessed as effect on body weight at 500 ug measured from day 9 to 21; settings: in vivo, 312 h, dose 500 µg, time 13 day
RAW264.7 [32] = experiment: Induction of apoptosis in mouse RAW264.7 cells assessed as necrotic cells at 12 uM by flow cytometry analysis (reference value: 20.6 %); assay type: functional
RAW264.7 [33] = experiment: Upregulation of CD40 expression in mouse RAW264.7 cells measured after 24 hrs by flow cytometry analysis; assay type: functional, cell-based; settings: dose 10-50 µM
BMDC [34] = experiment: Induction of immune response in TLR7 knockout mouse BMDC cells assessed as increase in TNF-alpha production at 10 to 100 uM incubated for 24 hrs by ELISA method; assay type: functional, cell-based; settings: dose 10-100 µM
RAW264.7 [35] = experiment: Induction of apoptosis in mouse RAW264.7 cells assessed as live cells at 10 uM by flow cytometry analysis (reference value: 75.4 %); assay type: functional
[36] = Toxicity in C57BL/6 mouse assessed as effect on ALB level in serum at 500 ug measured after 1 day after immunization; settings: 24 h, dose 500 µg
RAW264.7 [37] = experiment: Induction of apoptosis in mouse RAW264.7 cells assessed as apoptotic cells at 4 uM by flow cytometry analysis (reference value: 3.26 %); assay type: functional
[38] = Toxicity in C57BL/6 mouse assessed as effect on AST level in serum at 500 ug measured after 1 day after immunization; settings: 24 h, dose 500 µg
BMDC [39] = experiment: Induction of immune response in TLR7 knockout mouse BMDC cells assessed as increase in IFN-beta production at 10 to 100 uM incubated for 24 hrs by ELISA method; assay type: functional, cell-based; settings: dose 10-100 µM

With `C[C@H](CCC(=O)NCCCCCCCNC(=O)CC[C@@H](C)[C@H]1CC[C@H]2[C@@H]3CC[C@@H]4C[C@H](O)CC[C@]4(C)[C@H]3C[C@H](O)[C@]12C)[C@H]1CC[C@H]2[C@@H]3CC[C@@H]4C[C@H](O)CC[C@]4(C)[C@H]3C[C@H](O)[C@]12C` the Activity (RAW264.7 [1]) was 36.1%, the Activity (B16-OVA melanoma cell [2]) was “Active” and the Activity (B16-OVA melanoma cell [3]) was “inactive”. The Activity [4] was “Non-Toxic”, the Activity (RAW264.7 [5]) was 19% and the Activity (RAW264.7 [6]) was 2.23%. The Activity [7] was “Non-Toxic”, the Activity [8] was “Non-Toxic” and the Activity (Mus musculus [9]) was “Active”. For the same molecule, the Activity (RAW264.7 [10]) was “Dose-Dependent Effect”, the Activity [11] was “Non-Toxic” and the Activity (RAW264.7 [12]) was 77.8%. The Activity (BMDC [13]) was “Active”, the Activity (RAW264.7 [14]) was 34% and the Activity (BMDC [15]) was “Active”. The Activity [16] was “Non-Toxic”, the Activity (RAW264.7 [17]) was 60.7% and the “fold change (FC)” value [18] was 6.3. For the same molecule, the Activity (Mus musculus [19]) was “Active”, the Activity (BMDC [20]) was “inactive” and the Activity [21] was “Non-Toxic”. For the same molecule, the “fold change (FC)” value [22] was 1.2, the Activity (BMDC [23]) was “Non-Toxic” and the “fold change (FC)” value [24] was 2. For the same molecule, the Activity [25] was “Non-Toxic”, the Activity [26] was “Non-Toxic” and the Activity (BMDC [27]) was “inactive”. The Activity [28] was “Non-Toxic”, the Activity (RAW264.7 [29]) was 66.8% and the Activity [30] was “Non-Toxic”. For the same molecule, the Activity [31] was “Non-Toxic”, the Activity (RAW264.7 [32]) was 30.5% and the Activity (RAW264.7 [33]) was “Dose-Dependent Effect”. For the same molecule, the Activity (BMDC [34]) was “inactive”, the Activity (RAW264.7 [35]) was 67.2% and the Activity [36] was “Non-Toxic”. The Activity (RAW264.7 [37]) was 2.1%, the Activity [38] was “Non-Toxic” and the Activity (BMDC [39]) was “inactive”.

From ChEMBL document CHEMBL5365463, “Identification of a Self-Assembling Small-Molecule Cancer Vaccine Adjuvant with an Improved Toxicity Profile” (J Med Chem, 2023)
